Reference: US20190322676A1, “CERAMIDE GALACTOSYLTRANSFERASE INHIBITORS FOR THE TREATMENT OF DISEASE” (BioMarin Pharmaceutical Inc., priority 2016, published 2019)
Structures can show the parent of a compound that is named as a salt.

Target: T1, human CGT (ceramide galactosyltransferase), CHO/CGT lysate (Homo sapiens, UniProt Q16880)
T1 construct: Full-length human CGT cDNA was cloned into the BamH1/Xho1 site of pcDNA3.1 (+); expressed in transfected cells; host or cells: Chinese hamster ovary (CHO) cells; lysate prepared with M-PER
T1 sequence (Q16880 21-541): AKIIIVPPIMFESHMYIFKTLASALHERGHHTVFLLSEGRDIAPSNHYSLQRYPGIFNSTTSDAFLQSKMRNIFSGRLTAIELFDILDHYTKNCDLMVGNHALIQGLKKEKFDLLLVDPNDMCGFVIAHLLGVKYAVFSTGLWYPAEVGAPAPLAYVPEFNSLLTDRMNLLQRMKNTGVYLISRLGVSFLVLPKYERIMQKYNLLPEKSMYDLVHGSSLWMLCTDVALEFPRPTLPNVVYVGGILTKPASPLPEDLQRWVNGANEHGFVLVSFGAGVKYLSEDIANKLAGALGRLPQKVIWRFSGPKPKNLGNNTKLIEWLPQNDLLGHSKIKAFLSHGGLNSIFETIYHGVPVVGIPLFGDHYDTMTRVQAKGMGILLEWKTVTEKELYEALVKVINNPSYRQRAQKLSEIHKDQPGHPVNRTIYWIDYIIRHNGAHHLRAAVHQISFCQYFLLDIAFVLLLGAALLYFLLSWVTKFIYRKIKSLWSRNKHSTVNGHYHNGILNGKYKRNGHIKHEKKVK
Test: CGT enzyme assay, RapidFire/MS/MS readout (Table 1 ranges with one asterisk *)
Format: biochemical
Details: RapidFire method (range with one asterisk *)
Method: Full-length human CGT cDNA was cloned into the BamH1/Xho1 site of pcDNA3.1 (+) mammalian expression vector (V90-20, Invitrogen, Carlsbad, Calif.) and the plasmid was transfected into Chinese hamster ovary (CHO) cells. Lysate was prepared using M-PER (Mammalian Protein Extraction Reagent, ThermoFisher Scientific, Grand Island, N.Y.) in the presence of a protease inhibitor cocktail (P8340, Sigma, Saint Louis, Mo.). Each 100 mm dish (100% confluent, approximately 1×10^7 cells) was lysed with 250 μL of M-PER containing protease inhibitors. Protein concentration was determined using a Pierce BCA protein assay kit (ThermoFisher Scientific). Four micrograms of CHO/CGT lysate was incubated with various concentrations of a compound (0.001 μM-50 μM) in 10 mM HEPES (pH 7.2) containing 35 μM dioleoylphosphatidylcholine, 5 mM MgCl2, 5 mM MnCl2, 1% BSA, 15 mM KCl, 1 mM EGTA, 8 mM CHAPS, 10 μM C6-NBD-dihydro-ceramide and 17.5 μM UDP-galactose in a final reaction volume of 20 μL at 37° C. for 1 hour. The final concentration of DMSO was 0.5% in both compound-treated and mock-treated samples. Tween 80 (0.01%) was optionally added to the reaction mixture to help solubilize the compounds. Each individual reaction was diluted with 80 μL of methanol:acetronitrile (1:3) containing 5 μM N-docdecanoyl-NBD-galactosylceramide (internal standard) to stop the reaction. 200 μL H2O:acetonitile (1:1) was added to precipitate the protein. After sufficient mixing, the plates were centrifuged at 2469 g for 38 minutes, 200 μL of supernatant was transferred to a LC/MS 96-deep well plate and a second spin was performed at 2469 g for 10 minutes. The final supernatant was injected in triplicate for RapidFire/MS/MS analysis.
Quantitative Analysis Using the RapidFire/MS/MS Method:
The quantitative analysis of C6-NBD-dihydro-ceramide and C6-NBD-dihydro-galactosylceramide was performed on a Rapid Fire 360 high-throughput mass spectrometry system (Agilent Technologies, Palo Alto, Calif.) coupled with a API4000^+ triple quadrupole mass spectrometer (Applied Biosystems, Concord, Ontario, Canada). RapidFire software packages, including RapidFire Control panel, RapidFire UI and RapidFire Integrator (Agilent Technologies), were used to control the RapidFire instrument and to process data. Analyst 1.6.2 software packages (Applied Biosystems) were used to control the MS system and acquire MS data. […] of sample was loaded on a micro-scale C4 solid-phase extraction (SPE) cartridge (Agilent Technologies) and salts were removed using water supplemented with 0.1% formic acid at the flow rate of 1.5 mL/min for 3 sec. C6-NBD-dihydro-ceramide and C6-NBD-dihydro-galactosylceramide were co-eluted into the mass spectrometer using acetonitrile containing 0.1% formic acid at the flow rate of 1.0 mL/min for 3 sec. The total cycle time of one injection was 8 secs. The MS/MS detection was performed in ESI negative mode. The mass transition of C6-NBD-dihydro-galactosylceramide was m/z 752.6→678.6 using a −40 V collision energy, the mass transition of C6-NBD-dihydro-ceramide was m/z 590.6→115.8 using a −40 V collision energy and the mass transition of N-docdecanoyl-NBD-galactosylceramide was m/z 820.9→746.3 using a −45 V collision energy.
The C6-NBD-dihydro-galactosylceramide reading was normalized first by dividing the peak area of C6-NBD-dihydro-galactosylceramide by the peak area of the internal standard, N-docdecanoyl-NBD-galactosylceramide. IC50 values (see Table 1, where data ranges with one asterix (*) correspond to analysis using the RapidFire/MS/MS method, and data ranges with two asterixes (**) correspond to analysis using the RapidFire/MS/MS method with 0.01% Tween added) were generated from sigmoidal dose-response curves (variable slope) with GraphPad Prism software (GraphPad Software, Inc., San Diego, Calif.) using the normalized peak areas of C6-NBD-dihydro-galactosylceramide or the percent inhibition of C6-NBD-dihydro-galactosylceramide accumulation relative to DMSO control. […]

Structure (SMILES) | IC50
CCCCOc1cc(C(F)(F)[C@@H](NS(=O)(=O)c2ccc(OCC3CCCCC3)cc2)C(=O)N2C3CCC2CC(N)C3)ccc1Cl (stereo partly drawn) [Compound 120-2, N-((2S)-3-(3-amino-8-azabicyclo[3.2.1]octan-8-yl)-1-(3-butoxy-4-chlorophenyl)-1,1-difluoro-3-oxopropan-2-yl)-4-(cyclohexylmethoxy)benzenesulfonamide] | 1 to 10 µM
CN([C@H](C(=O)N1C2CCC1CC(N)C2)C(F)(F)c1ccc(OCCN2CCCCC2)cc1)S(=O)(=O)c1ccc2cc(OC3CCCC3)ccc2c1 (stereo partly drawn) [Compound 116-1, N-((2R)-3-(3-amino-8-azabicyclo[3.2.1]octan-8-yl)-1,1-difluoro-3-oxo-1-(4-(2-(piperidin-1-yl)ethoxy)phenyl)propan-2-yl)-6-(cyclopentyloxy)-N-methylnaphthalene-2-sulfonamide] | 30 to 100 µM
NC1CCN(C(=O)[C@@H](NS(=O)(=O)c2ccc3cc(OC4CCCC4)ccc3c2)C(F)(F)c2cccc(-c3ccccc3)c2)CC1 [Compound 69-1, (R)—N-(1-([1,1′-biphenyl]-3-yl)-3-(4-aminopiperidin-1-yl)-1,1-difluoro-3-oxopropan-2-yl)-6-(cyclopentyloxy)naphthalene-2-sulfonamide trifluoroacetate] | 1 to 10 µM
CN([C@H](C(=O)N1CCC(N)CC1)C(F)(F)c1ccc(Cl)cc1)S(=O)(=O)c1ccc2cc(OC3CCCC3)ccc2c1 [Compound 100-1, (R)—N-(3-(4-aminopiperidin-1-yl)-1-(4-chlorophenyl)-1,1-difluoro-3-oxopropan-2-yl)-6-(cyclopentyloxy)-N-methylnaphthalene-2-sulfonamide] | < 1 µM
CCCCOc1cccc(C(F)(F)[C@H](NS(=O)(=O)c2ccc3cc(OC4CCCC4)ccc3c2)C(=O)N2CCC(N)CC2)c1 [Compound 83-1, (R)—N-(3-(4-aminopiperidin-1-yl)-1-(3-butoxyphenyl)-1,1-difluoro-3-oxopropan-2-yl)-6-(cyclopentyloxy)naphthalene-2-sulfonamide trifluoroacetate] | < 1 µM
NC1CC2CCC(C1)N2C(=O)[C@H](NS(=O)(=O)c1ccc(OCC2CCCCC2)cc1)C(F)(F)c1ccc(OC2CCCCC2)cc1 (stereo partly drawn) [Compound 105-2, N-((2S)-3-(3-amino-8-azabicyclo[3.2.1]octan-8-yl)-1-(4-(cyclohexyloxy)phenyl)-1,1-difluoro-3-oxopropan-2-yl)-4-(cyclohexylmethoxy)benzenesulfonamide] | 10 to 30 µM
NC1CC2CCC(C1)N2C(=O)[C@H](NS(=O)(=O)c1ccc2cc(OC3CCCC3)ccc2c1)C(F)(F)c1ccc(Cl)s1 (stereo partly drawn) [Compound 130-2, N-((2S)-3-(3-amino-8-azabicyclo[3.2.1]octan-8-yl)-1-(5-chlorothiophen-2-yl)-1,1-difluoro-3-oxopropan-2-yl)-6-(cyclopentyloxy)naphthalene-2-sulfonamide] | 10 to 30 µM
NC1CC2CCC(C1)N2C(=O)[C@@H](NS(=O)(=O)c1ccc(OCC2CCCCC2)cc1)C(F)(F)c1ccc(-c2ccc(Cl)s2)cc1 (stereo partly drawn) [Compound 104-1, N-((2R)-3-(3-amino-8-azabicyclo[3.2.1]octan-8-yl)-1-(4-(5-chlorothiophen-2-yl)phenyl)-1,1-difluoro-3-oxopropan-2-yl)-4-(cyclohexylmethoxy) benzenesulfonamide] | 1 to 10 µM
CN([C@@H](C(=O)N1C2CCC1CC(N)C2)C(F)(F)c1ccc(OCc2ccccc2)cc1)S(=O)(=O)c1ccc2cc(OC3CCCC3)ccc2c1 (stereo partly drawn) [Compound 106-2, N-((2S)-3-(3-amino-8-azabicyclo[3.2.1]octan-8-yl)-1-(4-(benzyloxy)phenyl)-1,1-difluoro-3-oxopropan-2-yl)-6-(cyclopentyloxy)-N-methylnaphthalene-2-sulfonamide] | 1 to 10 µM
CN([C@@H](C(=O)N1CCC(N)CC1)C(F)(F)c1ccc(Br)cc1)S(=O)(=O)c1ccc2cc(OC3CCCC3)ccc2c1 [Compound 44-2, (S)—N-(3-(4-aminopiperidin-1-yl)-1-(4-bromophenyl)-1,1-difluoro-3-oxopropan-2-yl)-6-(cyclopentyloxy)-N-methylnaphthalene-2-sulfonamide] | 1 to 10 µM
CN([C@H](C(=O)N1C2CCC1CC(N)C2)C(F)(F)c1ccc(C(F)(F)F)cc1)S(=O)(=O)c1ccc2cc(OC3CCCC3)ccc2c1 (stereo partly drawn) [Compound 73-1, N-((2R)-3-(3-amino-8-azabicyclo[3.2.1]octan-8-yl)-1,1-difluoro-3-oxo-1-(4-(trifluoromethyl)phenyl)propan-2-yl)-6-(cycyclopentyloxy)-N-methylnaphthalene-2-sulfonamide] | < 1 µM
CN([C@@H](C(=O)N1C2CCC1CC(N)C2)C(F)(F)c1ccc(Br)cc1)S(=O)(=O)c1ccc2nn(CC3CCCC3)cc2c1 (stereo partly drawn) [Compound 78-2, N-((2S)-3-(3-amino-8-azabicyclo[3.2.1]octan-8-yl)-1-(4-bromophenyl)-1,1-difluoro-3-oxopropan-2-yl)-2-(cyclopentylmethyl)-N-methyl-2H-indazole-5-sulfonamide] | 30 to 100 µM
CCN([C@@H](C(=O)N1C2CCC1CC(N)C2)C(F)(F)c1ccc(Br)cc1)S(=O)(=O)c1ccc2cc(OC3CCCC3)ccc2c1 (stereo partly drawn) [Compound 68-2, N-((2S)-3-(3-amino-8-azabicyclo[3.2.1]octan-8-yl)-1-(4-bromophenyl)-1,1-difluoro-3-oxopropan-2-yl)-6-(cyclopentyloxy)-N-ethylnaphthalene-2-sulfonamide] | 30 to 100 µM
NC1CC2CCC(C1)N2C(=O)[C@H](NS(=O)(=O)c1ccc(OCC2CCCCC2)cc1)C(F)(F)c1ccc(Cl)cc1 (stereo partly drawn) [Compound 29-2, N-((2S)-3-(3-amino-8-azabicyclo[3.2.1]octan-8-yl)-1-(4-chlorophenyl)-1,1-difluoro-3-oxopropan-2-yl)-4-(cyclohexylmethoxy) benzenesulfonamide trifluoroacetate] | 1 to 10 µM
NC1CCN(C(=O)[C@H](NS(=O)(=O)c2ccc(OCC3CCCCC3)cc2)C(F)(F)c2ccc(-c3ccc(Cl)s3)cc2)CC1 [Compound 117-2, (S)—N-(3-(4-aminopiperidin-1-yl)-1-(4-(5-chlorothiophen-2-yl)phenyl)-1,1-difluoro-3-oxopropan-2-yl)-4-(cyclohexylmethoxy) benzenesulfonamide] | 10 to 30 µM
COc1cc(C(F)(F)[C@@H](NS(=O)(=O)c2ccc3cc(OC4CCCC4)ccc3c2)C(=O)N2CCC(N)CC2)ccc1Cl [Compound 123-2, (S)—N-(3-(4-aminopiperidin-1-yl)-1-(4-chloro-3-methoxyphenyl)-1,1-difluoro-3-oxopropan-2-yl)-6-(cyclopentyloxy)naphthalene-2-sulfonamide] | 1 to 10 µM
